In ChEMBL document CHEMBL1135481, “SMall Molecule Growth 2001 (SMoG2001): an improved knowledge-based scoring function for protein-ligand interactions” (J Med Chem, 2002):
Each block holds one molecule with its values, some of them ahead of it. Numbered stars: 1 amine (or outer) side, 2 acyl side, 3 side chain; on linkers, the order of the positions; unused ones are H or OH. Square brackets hold non-standard residues; d marks the D form. Peptide text beside a SMILES is read from it. Phe(ψ(S)CH(OH)CH2N)Pro = O=C([C@@H]1CCCN1C[C@H](O)[C@H](Cc1ccccc1)N[*:1])[*:2]

Experiments:
[1] = Binding affinity against Arabinose binding protein of the compound
[2] = Binding affinity against enolase
[3] = biological target: T1, Thermolysin (Bacillus thermoproteolyticus) (UniProt P00800); test: Binding affinity against Thermolysin
T1 sequence (whole entry): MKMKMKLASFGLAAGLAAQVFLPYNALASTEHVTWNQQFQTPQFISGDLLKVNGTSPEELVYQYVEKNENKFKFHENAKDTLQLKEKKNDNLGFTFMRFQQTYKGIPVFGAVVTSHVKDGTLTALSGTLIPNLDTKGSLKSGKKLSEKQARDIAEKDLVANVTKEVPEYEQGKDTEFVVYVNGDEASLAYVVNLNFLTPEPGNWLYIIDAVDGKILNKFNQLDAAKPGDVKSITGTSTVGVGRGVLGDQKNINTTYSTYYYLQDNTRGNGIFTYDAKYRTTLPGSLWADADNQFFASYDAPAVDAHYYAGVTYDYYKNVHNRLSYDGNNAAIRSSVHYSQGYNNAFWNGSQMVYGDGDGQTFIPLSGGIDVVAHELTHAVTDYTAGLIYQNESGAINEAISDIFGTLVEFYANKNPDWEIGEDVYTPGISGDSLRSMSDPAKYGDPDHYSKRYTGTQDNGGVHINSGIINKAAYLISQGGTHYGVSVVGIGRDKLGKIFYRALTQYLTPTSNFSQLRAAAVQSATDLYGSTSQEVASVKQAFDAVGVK

[4] = biological target: Human immunodeficiency virus type 1 protease (Human immunodeficiency virus 1) (UniProt Q72874); test: Affinity for HIV Protease
[5] = Binding affinity against FK506 binding protein
[6] = Binding affinity against TP isomerase
[7] = Binding affinity against Endothiapepsin
[8] = tested on: Purine nucleoside phosphorylase; test: Binding affinity against Purine Nucleoside Phosphorylase
[9] = Binding affinity against Glucoamylase
[10] = biological target: Prothrombin (Homo sapiens) (UniProt P00734); test: Binding affinity against thrombin
[11] = Binding affinity against immunoglobulin
[12] = Binding affinity against Neuraminidase

- Log Kd [1]: -5.43
Compound: C[C@H]1OC(O)[C@H](O)[C@@H](O)[C@H]1O (stereo not given in full)

Compound: O=C(CP(=O)(O)O)NO
- Log Kd [2]: -10.8

Compound: CC(C)C[C@H](NP(=O)(O)O)C(N)=O
- Log Kd [3]: -5.89

Compound: CC[C@H](C)[C@H](NC(=O)[C@@H]1CCCN1C[C@H](O)[C@H](Cc1ccccc1)NC(=O)[C@H](CC(N)=O)NC(=O)[C@H](CC(C)C)NC(=O)[C@H](CO)NC(C)=O)C(=O)N[C@H](C(=O)OC)C(C)C (Ac-SLN[Phe(ψ(S)CH(OH)CH2N)Pro]IV-OMe)
- Log Kd [4]: -9.63

- Log Kd [5]: -9.7
Compound: C=CC[C@@H]1/C=C(\C)C[C@H](C)C[C@H](OC)[C@H]2O[C@@](O)(C(=O)C(=O)N3CCCC[C@H]3C(=O)O[C@H](/C(C)=C/[C@@H]3CC[C@@H](O)[C@H](OC)C3)[C@H](C)[C@@H](O)CC1=O)[C@H](C)C[C@@H]2OC

- Log Kd [6]: -4.82
Compound: O=C(O)COP(=O)(O)O

Compound: O=[N+]([O-])Nc1ccccc1
- Log Kd [3]: -6.37

- Log Kd [7]: -4.8
Compound: CC(C)C[C@H](NC(=O)C[C@H](O)[C@H](CC1CCCCC1)NC(=O)CC[C@H](O)[C@H](Cc1ccccc1)NC(=O)OC(C)(C)C)C(=O)NCc1cccc(CN)c1

- Log Kd [8]: -5.85
Compound: O=P(O)(O)OP(=O)(O)OP(=O)(O)OP(=O)(O)OC[C@H]1O[C@@H](n2cnc3cncnc32)[C@H](O)[C@@H]1O

- Log Kd [7]: -9.02
Compound: CC[C@H](C)[C@@H](NC(=O)[C@@H](C[C@H](O)[C@H](CC(C)C)NC(=O)[C@H](Cc1c[nH]cn1)NC(=O)[C@H](Cc1ccccc1)NC(=O)[C@@H]1CCCN1C(=O)[C@@H](N)Cc1c[nH]cn1)C(C)C)C(=O)N[C@@H](Cc1c[nH]cn1)C(=O)O

- Log Kd [7]: -6.8
Compound: CC[C@H](C)[C@H](NC(=O)[C@@H](NC[C@H](CC(C)C)NC(=O)[C@H](Cc1c[nH]cn1)NC(=O)[C@H](Cc1ccccc1)NC(=O)[C@@H]1CCCN1C(=O)[C@H](Cc1c[nH]cn1)NC(=O)[C@@H]1CCCN1)C(C)C)C(=O)N[C@@H](Cc1c[nH]cn1)C(=O)N[C@@H](CCCCN)C(=O)O

- Log Kd [9]: -4.02
Compound: OC[C@H]1NC[C@H](O)[C@@H](O)[C@@H]1O

- Log Kd [4]: -9.52
Compound: O=C1N(Cc2ccc3ccccc3c2)[C@H](Cc2ccccc2)[C@H](O)[C@@H](O)[C@@H](Cc2ccccc2)N1Cc1ccc2ccccc2c1

- Log Kd [4]: -9.69
Compound: CC1(C)SC(C(NC(=O)Cc2ccccc2)C(=O)NCc2ccccc2)NC1C(=O)NC(Cc1ccccc1)C(O)CC(=O)NCC1=NC2C=CC=CC2=N1 (stereo not given)

- Log Kd [1]: -7.03
Compound: OC1OC[C@H](O)[C@H](O)[C@H]1O (stereo not given in full)

- Log Kd [3]: -5.91
Compound: CC(C)[C@H](N)C(=O)N[C@@H](Cc1c[nH]c2ccccc12)C(=O)O (H-Val-Trp-OH)

- Log Kd [3]: -3.72
Compound: CC(C)C[C@H](N)C(=O)NO

- Log Kd [10]: -6.24
Compound: NC(N)=NCCC[C@H](NC(=O)[C@@H]1CCCN1C(=O)C(N)Cc1ccccc1)C(=O)O (stereo in doubt)

- Log Kd [1]: -6.65
Compound: OC[C@H]1O[C@@H](O)[C@H](O)[C@@H](O)[C@H]1O

- Log Kd [11]: -7.28
Compound: N#Cc1ccc(NC(=N)NC(c2ccccc2)c2ccccc2)cc1

Compound: CC=O
- Log Kd [4]: -8.41

- Log Kd [4]: -10.5
Compound: CC(C)[C@H](NC(=O)N(C)Cc1ccccn1)C(=O)N[C@@H](Cc1ccccc1)C[C@@H](O)[C@H](Cc1ccccc1)NC(=O)[C@@H](NC(=O)N(C)Cc1ccccn1)C(C)C

- Log Kd [12]: -5.31
Compound: CC(=O)N[C@H]1[C@H]([C@H](O)[C@H](O)CO)OC(C(=O)O)=C[C@@H]1O

- Log Kd [3]: -7.13
Compound: CC(C)C[C@H](NC(CCc1ccccc1)C(=O)O)C(=O)N[C@@H](Cc1c[nH]c2ccccc12)C(=O)O (stereo not given in full)

- Log Kd [7]: -7.22
Compound: C[C@@H](O)[C@H](NC(=O)[C@@H]1CCCN1)C(=O)N[C@@H](CCC(=O)O)C(=O)N[C@H](CN[C@@H](Cc1ccccc1)C(=O)N[C@@H](CCCN=C(N)N)C(=O)N[C@@H](CCC(=O)O)C(=O)O)Cc1ccccc1
